Experiment [1] deals with NL-BAL. In words: Antiviral activity assay in peripheral blood mononuclear cells (PBMC), p24 ELISA, NL-BAL. Format: cell-based, HIV-1. The settings on record: Table 5, by weight; human PBMC, 6 days. On the procedure:
Human PBMC are isolated from buffy-coats (obtained from the Stanford Blood Center) by a Ficoll-Paque (Amersham, Piscataway, N.J., USA) density gradient centrifugation according to manufacturer's protocol. Briefly, blood is transferred from the buffy coats in 50 ml conical tubes and diluted with sterile Dulbecco's phosphate buffered saline (Invitrogen/Gibco) to a final volume of 50 ml. Twenty-five ml of the diluted blood are transferred to two 50 ml conical tubes, carefully underlayerd with 12.5 ml of Ficoll-Paque Plus (Amersham Biosciences) and centrifuged at room temperature for 20 min. at 450×g without braking. The white cell layer is carefully transferred to a new 50 ml conical tube and washed twice with PBS. To remove remaining red blood cells, cells are incubated for 5 min. at room temperature with ACK lysis buffer (Biosource) and washed one more time with PBS. PBMC are counted and incubated at a concentration of 2-4×10^6 cells/ml in RPMI1640 containing 10% FCS (Invitrogen/Gibco), 1% penicillin/streptomycin, 2 mM L-glutamine, 1 mM sodium-pyruvate, and 2 μg/ml Phyto-hemagglutinin (Invitrogen) for 24 h at 37° C. […] Virus production is measured at the end of infection by using p24 ELISA (HIV-1 p24 ELISA #NEK050B, Perkin Elmer/NEN) using the sigmoid dose-response model with one binding site in Microsoft Excel Fit (version 3.0.5 Build 12; equation 205; Microsoft).

In experiment [2] the test system is NL-BAL (R5). Briefly: Single-cycle antiviral activity assay (luciferase, JC53-BL cells), NL-BAL. Format: cell-based, HIV. The settings on record: Table 3, by weight, pseudotyped virus, 3 day incubation. Here is the method:
For the production of pseudotyped NL-Bal viruses, plasmid pNL4-3Δenv (HIV pNL4-3 genomic construct with a deletion within the env gene) and pcDNA3.1/NL-BAL env (pcDNA3.1 plasmid containing NL-Bal env gene (obtained from NIBSC Centralized Facility for AIDS Reagents)) were co-transfected into the HEK 293FT cell line (Invitrogen Corp.), cultured in Dulbecco's modified minimum medium (DMEM) containing 10% fetal calf serum (FCS), 100 U/mL Penicillin, 100 μg/mL Streptomycin, 2 mM L-glutamine and 0.5 mg/mL geniticin (all media from Invitrogen/Gibco). The supernatants containing pseudotyped viruses were harvested two days following transfection, and cellular debris was removed by filtration through a […] pore size PES (polyethersulfone) filter (Nalgene) and stored at −80° C. in aliquots. For normalization in assay performance, virus stock aliquots were used to infect JC53-BL (US NIH Aids Reagent Program) cells yielding approximately 1.5×10^5 RLU (relative light units) per well. […] The assay plates were read on a Luminometer (Luminoskan, Thermo Electron Corporation) after 10 minutes of incubation at room temperature. Percent inhibition of luciferase activity was calculated for each dose point after subtracting the background, and IC50 and IC90-values were determined by using XLfit curve fitting software for Excel (version 3.0.5 Build12; Microsoft).

This note sets out measurements from patent US20090022720A1, “Conjugate of an antibody against CD4 and antifusogenic peptides” (priority 2007, published 2009).

Regarding “NMTWMEWDREINQYTSLIHSLIEESQNQQEKNEQELL [afp-1]”, the “Antiviral activity NL-BAL IC90” value in experiment [1] is recorded as “—/57.6 ng/mL”. Also, in experiment [2], the “Antiviral activity NL-BAL (R5) IC50” value is 19.6/— ng/mL.
